≈ marks a conversion by molar mass, not a printed value. Read-outs that look alike come from different tables or passages of the source.
Key:
HIV-1IIIB = assay: HIV-1-mediated cytopathic effect (CPE), XTT; type: cell-based; settings: for selectivity ratio at 6 days: human, read-out: Selective Index (S.I.) = CC50/IC50 for CPE
Procedure: The inhibitory activity of the compounds was determined by a calorimetric method based on protection of cells against HIV-1-mediated CPE, as described in Jiang et al., (1991), J. Exp. Med., 174, 1557-1563. 1×10^4 MT-2 cells in 96-well plates were infected with diluted HIV-1IIIB in 200 μl RPMI 1640 medium containing 10% FBS in the presence of compounds at graded concentrations. After 1 hour, 24 hours and 4 days, half of the culture media were changed. On the sixth day post infection, an indicator, XTT tetrazolium dye (1 mg/ml; 50 μl/well; PolySciences, Inc., Warrington, Pa.), was added to the cells. After 4 hours, the soluble intracellular formazan was determined calorimetrically at 450 nm. The percent of inhibition of CPE and the IC50 values were calculated as described above.

[1] = test system: H9/HIV-1IIIB cells and MT-2 cells; assay: cells; type: cell-based; settings: for IC50: Human immunodeficiency virus 1, MT2, 2 h, read-out: IC50 ± SD Cell fusion; for Inhibition of HIV-1-mediated cell fusion (in words): compounds at 10 μg/ml, FIG. 13; for Inhibitory activity on HIV-1-mediated cell fusion (in words): no concentration stated
Procedure: A dye transfer assay was used for detection of HIV-1-mediated cell fusion as described in Jiang et al., Nature, 365, 113 (1993). H9/HIV-1IIIB cells were labeled with a fluorescent reagent, 2′,7′-bis-(2-carboxyethyl)-5-and-6-carboxyfluorescein acetoxyethyl ester (BCECF-AM), (Molecular Probes, Inc., Eugene, Oreg.) and incubated with MT-2 cells (ratio=1:10) in a 96-well plate at 37° C. for 2 hours in the presence or absence of peptides or compounds tested. The fused and unfused BCECF-labeled HIV-1 infected cells were counted under an inverted fluorescence microscope (Zeiss, Germany) with an eyepiece micrometer discs. The percentage of inhibition of cell fusion was calculated as described in Jiang et al., 1993, Nature, 365, 113.
A dye transfer assay was used for detection of HIV-1 mediated cell fusion as described in Jiang, S., K. Lin, N. Strick, and A. R. Neurath, 1993, Inhibition of HIV-1 infection by a fusion domain binding peptide from HIV-1 envelope glycoprotein gp41, Biochem. Biophys. Res. Commun., 195, 533-538.
H9/HIV-1IIIB cells were labeled with a fluorescent reagent, 2′,7′-bis-(2-carboxyethyl)-5-and-6-carboxyfluorescein acetoxyethyl ester (BCECF-AM) (Molecular Probes, Inc., Eugene, Oreg.) and then incubated with MT-2 cells (ratio=1:10) in 96-well plates at 37° C. for 2 hours in the presence or absence of the compounds tested. The fused and unfused BCECF-labeled HIV-1 infected cells were counted under an inverted fluorescence microscope (Zeiss, Germany) with an eyepiece micrometer disc. The percentage of inhibition of cell fusion and the IC50 values were calculated as described in Jiang et al., (1993), Biochem. Biophys. Res. Commun., 195, 533-538.

[2] = In vitro cytotoxicity, XTT; type: cell-based; settings: human
Procedure: The in vitro cytotoxicity for MT-2 cells of the compounds was determined in 96-well plates using the XTT dye to measure cell viability in the absence of virus. Ten μl of 5% TRITON X-100 were added to the wells corresponding to positive controls (“P”) and 10 μl medium was added to wells corresponding to negative controls (“N”). The percent cytotoxicity was calculated using the following formula: % cytotoxicity=[(E−N)/(P−N)]×100%, wherein “E” represents experimental data in the presence of compounds. The concentration corresponding to 50% cytotoxicity (CC50) for MT-2 cells was calculated using the Calcusyn computer program. The selectivity index (S.I.=CC50/IC50) for each compound was calculated.

[3] = target: T1, N-36/C-34 complex (HIV-1 gp41 core) (Human immunodeficiency virus type 1 group M subtype B, UniProt P04578); assay: biochemical; type: binding; settings: for Inhibition of NC-1 detectable complex formation by N-36 and C-34 (in words): compounds at 10 μg/ml, FIG. 13; for Inhibitory activity on complex formation by N-36 and C-34 (in words): no concentration stated
T1 construct: Peptides derived from the NHR and CHR regions of gp41, designated N- and C-peptides; made in house; host or cells: chemical synthesis (solid-phase FMOC)
T1 sequence (P04578 546-581, one chain of several): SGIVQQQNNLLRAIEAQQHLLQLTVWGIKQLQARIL
Procedure: For detection of peptide complexes, a direct and a sandwich ELISA were used. In the direct ELISA, the N- and C-peptides were mixed at equimolar concentration in PBS and diluted in coating buffer. Then, the peptide complexes were directly coated onto the wells of microplate. In the sandwich ELISA, the plate was coated with IgG (10 μg/ml) purified from rabbit antisera directed against N36(L6)C34, followed by the addition of the peptide complexes formed by mixing N- and C-peptides in PBS in equimolar concentrations. To screen for antiviral agents, compounds were pre-incubated with N-peptides at 37° C. for 30 minutes before mixing with the C-peptides. The binding of the peptide complexes to the antibodies was then detected as described above.
The percentage of inhibition by the compounds of the binding of NC-1 to the peptide complexes was calculated as described in Jiang, S., K. Lin, and A. R. Neurath, 1991, “Enhancement of human immunodeficiency virus type-1 (HIV-1) infection by antisera to peptides from the envelope glycoproteins gp120/gp41”, J. Exp. Med., 174, 1557-1563.
A sandwich ELISA was established to screen for compounds that interfere with the formation of the N-36/C-34 complex. N-36 (2 μM) was preincubated with compounds at graded concentrations at 37° C. for 30 minutes, followed by the addition of C-34 (2 μM). After incubation at 37° C. for 30 minutes, the mixture was added to wells of a 96-well polystyrene plate (Immulon I, Dynatech Laboratories, Inc., Chantilly, Va.) which were precoated with IgG (10 μg/ml) purified from rabbit antisera directed against N36(L6)C34. […] Absorbance at 450 nm (A450) was read using an ELISA reader (Dynatech Laboratories, Inc., Chantilly, Va.). The percentage of inhibition by the compounds of the binding of NC-1 to the peptide complexes was calculated as described in Jiang S., K. Lin, and A. R. Neurath, 1991, “Enhancement of human immunodeficiency virus type-1 (HIV-1) infection by antisera to peptides from the envelope glycoproteins gp120/gp41”, J. Exp. Med., 174, 1557-1563. The concentration for 50% inhibition (IC50) was calculated using a computer program, designated Calcusyn (Chou, T.-C., 1991, “The median-effect principle and the combination index for quantitation of synergism and antagonism. In Synergism and Antagonism in Chemotherapy”, T.-C. Chou and D. C. Rideout, editors, Academic Press, San Diego, 61-102).

[4] = Human immunodeficiency virus 1, MT2, read-out: IC50 ± SD CPE
[5] = 50% cytotoxic concentration, MT-2 cells, no virus, read-out: CC50 ± SD
[6] = Human immunodeficiency virus 1, MT2, MT-2 cells, sixth day post infection, read-out: IC50 ± SD CPE

Molecule	IC50 (HIV-1IIIB; [4])	selectivity ratio at 6 days (HIV-1IIIB; MT-2 cells)	IC50 [1]	CC50 [2, 5]	IC50 [3]	Inhibition of HIV-1-mediated cell fusion (in words) [1]	Inhibition of NC-1 detectable complex formation by N-36 and C-34 (in words) [3]	Inhibitory activity on complex formation by N-36 and C-34 (in words) [3]	IC50 (HIV-1IIIB; [6])	CC50 [2]	Inhibitory activity on HIV-1-mediated CPE (in words) (HIV-1IIIB; no concentration stated)	Inhibitory activity on HIV-1-mediated cell fusion (in words) [1]
COC(=O)c1cc(C(=O)OC)cc(N(C(=O)Nc2ccc(Cl)c(Cl)c2)C(C)c2nc3ccccc3c(=O)n2Cc2ccccc2)c1 (stereo not shown) [ADS-J15]	> 100 µg/mL	≤ 1	> 100 µg/mL	20.9 ± 0.67 µg/mL (≈ 31.8 µM)	> 152 µM	–	–	–	–	–	–	–
O=C(O)c1ccc(-c2c3nc(c(-c4ccc(C(=O)O)cc4)c4ccc([nH]4)c(-c4ccc(C(=O)O)cc4)c4nc(c(-c5ccc(C(=O)O)cc5)c5ccc2[nH]5)C=C4)C=C3)cc1 [MTCPP, meso-tetra(4-carboxyphenyl)porphyrin, reference compound]	–	–	–	–	–	partially inhibited	partially inhibited	some inhibitory activity	–	–	–	–
C=CC1C[N@@]2CCC1C[C@@H]2C(OC(=O)c1ccc(OC)cc1)c1ccnc2ccccc12 (stereo partly shown) [ADS-J4]	–	≤ 1	> 100 µg/mL	–	> 233 µM	–	–	–	> 100 µg/mL	74.1 ± 0.76 µg/mL (≈ 173 µM)	–	–
CCC1C[N@@]2CCC1C[C@@H]2C(OC(=O)c1ccccc1Cl)c1ccnc2ccc(OC)cc12 (stereo partly shown) [ADS-J7]	–	≤ 1	59.8 ± 8.69 µg/mL (≈ 129 µM)	–	> 215 µM	–	–	–	> 100 µg/mL	41.3 ± 2.38 µg/mL (≈ 88.9 µM)	–	–
Cc1ccc(N=Nc2c(S(=O)(=O)O)cc3cc(S(=O)(=O)O)cc(Nc4nc(Cl)nc(Nc5ccccc5)n4)c3c2O)c(S(=O)(=O)O)c1 [ADS-J2, 5-[(4-chloro-6-phenylamino-1,3,5-triazine-2-yl)-amino]-4-hydroxy-3-[(4-methyl-6-sulfophenyl)azo]-2,7-naphthalene disulfonic acid]	30.8 ± 6.74 µg/mL (≈ 42.6 µM)	9.43	21.9 ± 1.38 µg/mL (≈ 30.3 µM)	290 ± 12.4 µg/mL (≈ 402 µM)	4.4 µM	–	–	promising inhibitory activity	–	–	promising inhibitory activity	promising inhibitory activity
Cc1ccc(N(C(=O)Nc2cccc(Cl)c2)C(C)c2nc3ccccc3c(=O)[nH]2)c(C)c1 (stereo not shown) [ADS-J12]	> 100 µg/mL	≤ 1	> 100 µg/mL	54 ± 8.14 µg/mL (≈ 121 µM)	> 224 µM	–	–	–	–	–	–	–
CC(Nc1ccccc1Cl)c1nc2ccccc2c(=O)n1Cc1ccccc1 (stereo not shown) [ADS-J14]	> 100 µg/mL	≤ 1	> 100 µg/mL	86.8 ± 5.79 µg/mL (≈ 223 µM)	> 256 µM	–	–	–	–	–	–	–
O=S(=O)(O)c1ccc(-c2c3nc(c(-c4ccc(S(=O)(=O)O)cc4)c4ccc([nH]4)c(-c4ccc(S(=O)(=O)O)cc4)c4nc(c(-c5ccc(S(=O)(=O)O)cc5)c5ccc2[nH]5)C=C4)C=C3)cc1 [MTSPP, meso-tetra(4-sulphonatophenyl)porphyrin, reference compound]	–	–	–	–	–	partially inhibited	partially inhibited	some inhibitory activity	–	–	–	–
C=Cc1c(C)c2cc3nc(c(CC(=O)O)c4[nH]c(cc5nc(cc1[nH]2)C(C)=C5CC)c(C)c4C(=O)O)[C@@H](CCC(=O)O)[C@@H]3C [chlorin e6, reference compound]	–	–	–	–	–	partially inhibited	partially inhibited	some inhibitory activity	–	–	–	–
Cc1ccc(N(C(=O)Nc2ccc(Cl)c(Cl)c2)C(C)c2nc3ccccc3c(=O)[nH]2)c(C)c1 (stereo not shown) [ADS-J13, N′-(3,4-dichlorophenyl)-N-[1-(4-oxo-3,4-dihydroquinazolin-2-yl)ethyl]-N-2,4-dimethyl phenylurea]	> 100 µg/mL	≤ 1	> 100 µg/mL	39.2 ± 7.6 µg/mL (≈ 81.5 µM)	> 208 µM	–	–	–	–	–	–	does not inhibit
O=C(Nc1ccc(Cl)c(Cl)c1)O/N=C(/c1ccccc1)c1ccc(-c2ccccc2)cc1 [ADS-J10]	> 100 µg/mL	≤ 1	> 100 µg/mL	74.7 ± 6.04 µg/mL (≈ 162 µM)	> 217 µM	–	–	–	–	–	–	–
Cc1ccc(N(C(=O)Nc2ccccc2)C(C)c2nc3ccccc3c(=O)[nH]2)c(C)c1 (stereo not shown) [ADS-J11]	> 100 µg/mL	≤ 1	> 100 µg/mL	40.8 ± 1.67 µg/mL (≈ 98.8 µM)	> 242 µM	–	–	–	–	–	–	–
O=P(CCP(c1ccccc1)c1ccccc1)(c1ccccc1)c1ccccc1 [ADS-J16]	> 100 µg/mL	≤ 1	52.3 ± 2.85 µg/mL (≈ 126 µM)	28.9 ± 5.97 µg/mL (≈ 69.7 µM)	> 241 µM	–	–	–	–	–	–	–
[Tyr5,12, Lys7]-polyphemusin II [Compound T-22, reference compound]	–	–	–	–	–	–	–	do not inhibit the complex formation	–	–	–	–
C/C(=N/OC(=O)NS(=O)(=O)c1ccc(C)cc1)c1cc2ccccc2oc1=O [ADS-J6]	> 100 µg/mL	≤ 1	> 100 µg/mL	286 ± 19.3 µg/mL (≈ 714 µM)	> 250 µM	–	–	–	–	–	–	–
CC(c1nc2ccc(Cl)cc2c(=O)n1Cc1ccccc1)N(C(=O)c1ccc([N+](=O)[O-])cc1)c1ccc(F)cc1 (stereo not shown) [ADS-J5]	> 100 µg/mL	≤ 1	> 100 µg/mL	30.2 ± 4.84 µg/mL (≈ 54.2 µM)	> 180 µM	–	–	–	–	–	–	–
O=C(Nc1cc([N+](=O)[O-])ccc1-c1ccc([N+](=O)[O-])cc1)c1ccc([N+](=O)[O-])cc1Cl [ADS-J9]	> 100 µg/mL	≤ 1	> 100 µg/mL	47.2 ± 5.48 µg/mL (≈ 107 µM)	> 226 µM	–	–	–	–	–	–	–

Reference: US6596497B1, “Screening of antiviral compounds targeted to the HIV-1 gp41 core structure” (New York Blood Center, Inc., priority 1999, dated 2003)
